This is an account of results in patent US20200288710A1, “SUBSTITUTED SULPHONAMIDES FOR CONTROLLING ANIMAL PESTS” (BAYER CROPSCIENCE AKTIENGESELLSCHAFT, priority 2016, published 2020).

Structures are written as SMILES.

Assay type in all cases: in vivo
The subject of one assay is Tetranychus urticae. In words: Tetranychus urticae spray test, OP-resistant. As to conditions: foliar, 144 h, bean leaf discs, after 6 days, read-out: efficacy. As for the experimental part:
Tetranychus urticae—Spray Test, OP-Resistant
To produce a suitable preparation of active compound, 1 part by weight of active compound is dissolved using the specified parts by weight of solvent and made up with water containing an emulsifier concentration of 1000 ppm until the desired concentration is attained. To produce further test concentrations, the formulation is diluted with emulsifier-containing water.
Discs of bean leaves (Phaseolus vulgaris) infested with all stages of the greenhouse red spider mite (Tetranychus urticae) are sprayed with an active compound preparation of the desired concentration.
After 6 days, the efficacy in % is determined. 100% means that all the spider mites have been killed; 0% means that no spider mites have been killed.

Assay [1] deals with Myzus persicae. Put plainly: Myzus persicae spray test (Chinese cabbage leaf discs). As to conditions: foliar, 120 h, after 5-6 days, read-out: efficacy. A digest of the protocol: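 Formulated compound in acetone/dimethylformamide, diluted in water with 1000 ppm emulsifier, was sprayed onto Brassica pekinensis leaf discs carrying mixed-stage Myzus persicae. Percent mortality was read 5-6 days later (0% = no aphids killed, 100% = all killed).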

Assay [2] deals with Myzus persicae. Put plainly: Myzus persicae oral test. As to conditions: 120 h, oral uptake, after 5 days, read-out: efficacy. A digest of the protocol:
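Aphids of mixed ages imbibe, through parafilm, compound solution (acetone stock, water-diluted) combined with sugar-supplemented IPL41 medium to 200 μl. Efficacy read at day 5 as percent killed, 0% meaning no deaths.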

The test system of a further assay is Phaedon cochleariae. Put plainly: Phaedon cochleariae spray test. As to conditions: foliar, 168 h, Chinese cabbage leaf discs, larvae, after 7 days, read-out: efficacy. A digest of the protocol: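 Mortality of beetle larvae scored at day 7, expressed as % (0% none killed, 100% all). Formulation: compound in solvent, made up and further diluted with emulsifier-containing water (1000 ppm emulsifier).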

The next assay concerns Lucilia cuprina. In words: Lucilia cuprina test. As to conditions: 48 h, L1 larvae, after 2 days, read-out: efficacy (kill in %). Here is the method:
Lucilia cuprina Test Solvent: dimethyl sulphoxide To produce a suitable preparation of active compound, 10 mg of active compound are mixed with 0.5 ml of dimethyl sulphoxide, and the concentrate is diluted with water to the desired concentration. About 20 L1 larvae of the Australian sheep blowfly (Lucilia cuprina) are transferred into a test vessel containing minced horsemeat and the active compound preparation of the desired concentration. After 2 days, the kill in % is determined. 100% means that all the larvae have been killed; 0% means that no larvae have been killed.

A further assay concerns Meloidogyne incognita. Put plainly: Meloidogyne incognita test. As to conditions: 336 h, lettuce, after 14 days, read-out: nematicidal efficacy (formation of galls). A digest of the protocol: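 Gall formation on lettuce roots scored after 14 days: 0% means gall count equals untreated control, 100% means none. Sand vessels held the compound (acetone concentrate diluted in water), southern root-knot nematode egg/larvae suspension and lettuce seeds.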

In the case of `COc1ccc(Cl)c(S(=O)(=O)NC(=O)c2cn(C)c(-c3c(Cl)cccc3Cl)n2)c1` [Example 101], the pest or weed control at 500 g/ha worked out at 90% with Tetranychus urticae, 90% in the assay on Myzus persicae [1] and 100% with Phaedon cochleariae. The pest or weed control at 20 ppm in the assay on Myzus persicae [2] is 100%; in the assay on Meloidogyne incognita, 90%. Besides, the pest or weed control at 100 ppm in the assay on Lucilia cuprina was 100%.
As for `Cn1nc(-c2c(F)cccc2F)nc1C(=O)NS(=O)(=O)c1ccccc1Cl` [Example 407], the pest or weed control at 500 g/ha in the assay on Tetranychus urticae was found to be 90%. The pest or weed control at 20 ppm in the assay with Meloidogyne incognita turned out to be 90%.
Consider `Cc1cc(S(=O)(=O)NC(=O)c2cn(C)c(-c3ccccc3Cl)n2)c(C)s1` [Example 217], for which the pest or weed control at 500 g/ha turned out to be 100% in the assay with Tetranychus urticae, 90% with Myzus persicae [1] and 83% in the assay on Phaedon cochleariae. Also, the values for the pest or weed control at 20 ppm in the assay with Myzus persicae [2] and in the assay on Meloidogyne incognita were 100% and 90%, respectively.
Take `CCn1cc(C(=O)NS(=O)(=O)CC)nc1-c1ccccc1Cl` [Example 78]: the pest or weed control at 500 g/ha with Tetranychus urticae and in the assay with Myzus persicae [1] was 90% in each case. In addition, in the assay with Meloidogyne incognita, the pest or weed control at 20 ppm was determined as 90%.
In the case of `Cc1c(F)cccc1S(=O)(=O)NC(=O)c1cn(C)c(-c2c(F)cccc2F)n1` [Example 318], the values for the pest or weed control at 500 g/ha in the assay with Tetranychus urticae, in the assay on Myzus persicae [1] and with Phaedon cochleariae were 90%, 100% and 100%, respectively. In addition, the pest or weed control at 20 ppm with Myzus persicae [2] stood at 100%; with Meloidogyne incognita, 90%.
For the molecule `Cn1cc(C(=O)NS(=O)(=O)c2ccccc2Cl)nc1-c1cnccc1Cl` [Example 495], the pest or weed control at 500 g/ha with Tetranychus urticae is 90%. Moreover, the pest or weed control at 20 ppm in the assay on Meloidogyne incognita turned out to be 90%.
`COc1ccc(Cl)c(S(=O)(=O)NC(=O)c2nc(-c3c(F)cccc3F)nn2C)c1` [Example 406]: the pest or weed control at 500 g/ha with Tetranychus urticae was 90%. The pest or weed control at 20 ppm with Meloidogyne incognita is 90%.
For the molecule `CCS(=O)(=O)NC(=O)c1cn(C)c(-c2c(Cl)cccc2Cl)n1` [Example 82], the pest or weed control at 500 g/ha in the assay on Tetranychus urticae and in the assay with Myzus persicae [1] was 90% throughout. In addition, in the assay with Meloidogyne incognita, the pest or weed control at 20 ppm was found to be 90%.
Regarding `Cc1cc(C(=O)NS(=O)(=O)c2cc(Cl)ccc2Br)nn1-c1ccccc1C(F)(F)F` [Example 293], in the assay with Tetranychus urticae, the pest or weed control at 500 g/ha was 100%. In addition, the pest or weed control at 20 ppm in the assay with Meloidogyne incognita stood at 90%.
In the case of `O=C(NS(=O)(=O)CC(F)(F)F)c1cn(-c2ccccc2)c(-c2ccccc2Cl)n1` [Example 74], in the assay with Tetranychus urticae, the pest or weed control at 500 g/ha came to 100%.
Regarding `COc1ccc(Cl)c(S(=O)(=O)NC(=O)c2nc(-c3ccccc3Cl)n(C)c2C)c1` [Example 104], the pest or weed control at 500 g/ha in the assay with Tetranychus urticae was determined as 90%; in the assay on Phaedon cochleariae, 100%. The results for the pest or weed control at 20 ppm in the assay on Myzus persicae [2] and in the assay with Meloidogyne incognita were 100% and 90%, respectively.
With `Cc1ccsc1S(=O)(=O)NC(=O)c1cn(C)c(-c2ncccc2F)n1` [Example 573], the pest or weed control at 500 g/ha in the assay with Tetranychus urticae and in the assay with Myzus persicae [1] was 90% in each case. Moreover, the pest or weed control at 20 ppm in the assay on Myzus persicae [2] amounted to 100%.
`Cc1ccc(S(=O)(=O)NC(=O)c2cn(C)c(-c3c(F)cccc3F)n2)s1` [Example 351]: the pest or weed control at 500 g/ha in the assay on Tetranychus urticae was found to be 90%. For the same molecule, the pest or weed control at 100 g/ha in the assay with Myzus persicae [1] (100 g/ha) was 90%. For the same molecule, the pest or weed control at 20 ppm in the assay on Meloidogyne incognita stood at 90%.
On to `Cc1ccsc1S(=O)(=O)NC(=O)c1cn(C)c(-c2ccccc2Cl)n1` [Example 212], for which the pest or weed control at 500 g/ha was determined as 90% in the assay with Tetranychus urticae and 100% in the assay on Myzus persicae [1]. The figures for the pest or weed control at 20 ppm with Myzus persicae [2] and in the assay with Meloidogyne incognita were 100% and 90%, respectively.
Take `Cc1ccccc1-c1nc(C(=O)NS(=O)(=O)CC(F)(F)F)cn1C` [Example 87]: the pest or weed control at 500 g/ha with Tetranychus urticae was determined as 90%; with Myzus persicae [1], 100%.
In the case of `Cn1cc(C(=O)NS(=O)(=O)c2cccc(Cl)c2F)nc1-c1c(F)cccc1F` [Example 315], the pest or weed control at 500 g/ha is 90% in the assay on Tetranychus urticae and 100% in the assay on Myzus persicae [1]. Further, the pest or weed control at 20 ppm in the assay on Myzus persicae [2] and in the assay on Meloidogyne incognita was 100% each time.
Take `Cn1cc(C(=O)NS(=O)(=O)c2ccc(Cl)cc2)nc1-c1c(F)cccc1F` [Example 46]: the pest or weed control at 500 g/ha with Tetranychus urticae and in the assay with Myzus persicae [1] was 90% throughout. Also, the pest or weed control at 20 ppm in the assay with Meloidogyne incognita came to 100%.
With `COc1ccc(C)c(S(=O)(=O)NC(=O)c2cn(C)c(-c3ncccc3Cl)n2)c1` [Example 582], the figures for the pest or weed control at 500 g/ha with Tetranychus urticae, in the assay on Myzus persicae [1] and with Phaedon cochleariae were 90%, 100% and 83%, respectively. Further, in the assay with Myzus persicae [2] (4 ppm), the pest or weed control at 4 ppm turned out to be 100%. In addition, the pest or weed control at 20 ppm in the assay on Meloidogyne incognita was determined as 90%.
With `CCc1cccc(C)c1S(=O)(=O)NC(=O)c1cn(C)c(-c2c(F)cccc2F)n1` [Example 336], the pest or weed control at 500 g/ha in the assay with Myzus persicae [1] stood at 90%; in the assay with Phaedon cochleariae, 100%. Further, the pest or weed control at 20 ppm in the assay with Myzus persicae [2] and in the assay on Meloidogyne incognita was 100% throughout. Moreover, in the assay on Lucilia cuprina, the pest or weed control at 100 ppm was found to be 95%.
Consider `CCS(=O)(=O)NC(=O)c1nc(-c2ccccc2Cl)n(C)c1C` [Example 70], for which the pest or weed control at 500 g/ha in the assay on Tetranychus urticae and in the assay with Myzus persicae [1] was 90% in each case. Further, the pest or weed control at 20 ppm in the assay with Myzus persicae [2] is 100%.
In the case of `Cn1cc(C(=O)NS(=O)(=O)c2c(Cl)cccc2Cl)nc1-c1cccc(Cl)c1Cl` [Example 568], the pest or weed control at 500 g/ha with Tetranychus urticae worked out at 90%; in the assay with Myzus persicae [1], 100%; in the assay on Phaedon cochleariae, 83%. Also, the pest or weed control at 20 ppm with Myzus persicae [2] was 100%; with Meloidogyne incognita, 90%.
Turning to `Cn1cc(C(=O)NS(=O)(=O)c2cccc(Cl)c2Cl)nc1-c1c(F)cccc1F` [Example 173], the pest or weed control at 500 g/ha with Tetranychus urticae stood at 90%; in the assay with Myzus persicae [1] it was 100%. For the same molecule, the pest or weed control at 20 ppm with Myzus persicae [2] and in the assay on Meloidogyne incognita was 100% each time.
In the case of `Cn1cc(C(=O)NS(=O)(=O)c2ccccc2Br)nc1-c1ccccc1Cl` [Example 36], the pest or weed control at 500 g/ha with Myzus persicae [1] and in the assay with Phaedon cochleariae was 100% throughout. Further, the pest or weed control at 20 ppm in the assay with Myzus persicae [2] and with Meloidogyne incognita was 100% each time. In the assay on Lucilia cuprina, the pest or weed control at 100 ppm came out at 100%.
For the molecule `Cc1cc(C(=O)NS(=O)(=O)c2ccccc2Cl)nn1-c1ccccc1C(F)(F)F` [Example 291], in the assay on Tetranychus urticae, the pest or weed control at 500 g/ha was determined as 90%. Besides, the pest or weed control at 20 ppm in the assay with Meloidogyne incognita was determined as 90%.
For `Cn1cc(C(=O)NS(=O)(=O)c2c(Cl)cccc2Cl)nc1-c1c(F)cccc1Cl` [Example 108], the pest or weed control at 500 g/ha in the assay with Myzus persicae [1] and in the assay with Phaedon cochleariae was 100% each time. The pest or weed control at 20 ppm with Myzus persicae [2] came to 100%; in the assay on Meloidogyne incognita, 90%. For the same molecule, the pest or weed control at 100 ppm with Lucilia cuprina was 95%.
